Laboratory results: patent US11174268B2, “Benzenesulfonamide compouds and their use as therapeutic agents” (Xenon Pharmaceuticals Inc., priority 2016, dated 2021)
Structures can show the parent of a compound that is named as a salt. Where two headings read alike, the source gives them in different places.

What was measured:
NaV1.6 [1] = biological target: T1, NaV1.6 (Homo sapiens (Human), UniProt Q9UQD0); experiment: Sodium Influx Assay (Flux), NaV1.6; assay type: cell-based; settings: Trex HEK293 cells, ANG2 dye, inactivated state;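 also: Tetracycline-induced cells, compounds applied for one hour at room temperature with modulators holding channels open, IC50 from percent inhibition of sodium influx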
NaV1.1 [2] = biological target: T2, NaV1.1 (Homo sapiens (Human), UniProt P35498); experiment: Sodium Influx Assay (Flux), NaV1.1; assay type: cell-based; settings: Trex HEK293 cells, ANG2 dye, inactivated state;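 also: channels co-expressed with human β1 subunit and held open by modulators, cells exposed to compounds for one hour at room temperature, IC50 from percent inhibition of influx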
NaV1.5 [3] = biological target: T3, NaV1.5 (Homo sapiens (Human), UniProt Q14524)
NaV1.6 [4] = biological target: T1, NaV1.6; experiment: Electrophysiological Assay (EP), patch voltage clamp, NaV1.6; assay type: cell-based; settings: HEK-293 cells, whole-cell patch clamp;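 also: sodium current recorded at ambient temperature, channels held inactivated then briefly repolarized to −150 mV for 20 ms before a test pulse, control currents in 0.5% DMSO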
NaV1.5 [5] = biological target: T3, NaV1.5; experiment: Electrophysiological Assay (EP), patch voltage clamp, NaV1.5; assay type: cell-based; settings: HEK-293 cells, whole-cell patch clamp
NaV1.1 [6] = biological target: T2, NaV1.1; experiment: Electrophysiological Assay (EP), patch voltage clamp, NaV1.1; assay type: cell-based; settings: HEK-293 cells, whole-cell patch clamp;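 also: sodium current block measured at ambient temperature, holding at fully inactivating potential, 20 ms repolarization to −150 mV before test pulse, versus 0.5% DMSO control currents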
NaV1.5 [7] = biological target: T3, NaV1.5; experiment: Sodium Influx Assay (Flux), NaV1.5; settings: read-out: Flux NaV1.5 IC50; Trex HEK293 cells, ANG2 dye, inactivated state

T3 sequence (Q14524 other isoform, or with tags, fused parts or gaps): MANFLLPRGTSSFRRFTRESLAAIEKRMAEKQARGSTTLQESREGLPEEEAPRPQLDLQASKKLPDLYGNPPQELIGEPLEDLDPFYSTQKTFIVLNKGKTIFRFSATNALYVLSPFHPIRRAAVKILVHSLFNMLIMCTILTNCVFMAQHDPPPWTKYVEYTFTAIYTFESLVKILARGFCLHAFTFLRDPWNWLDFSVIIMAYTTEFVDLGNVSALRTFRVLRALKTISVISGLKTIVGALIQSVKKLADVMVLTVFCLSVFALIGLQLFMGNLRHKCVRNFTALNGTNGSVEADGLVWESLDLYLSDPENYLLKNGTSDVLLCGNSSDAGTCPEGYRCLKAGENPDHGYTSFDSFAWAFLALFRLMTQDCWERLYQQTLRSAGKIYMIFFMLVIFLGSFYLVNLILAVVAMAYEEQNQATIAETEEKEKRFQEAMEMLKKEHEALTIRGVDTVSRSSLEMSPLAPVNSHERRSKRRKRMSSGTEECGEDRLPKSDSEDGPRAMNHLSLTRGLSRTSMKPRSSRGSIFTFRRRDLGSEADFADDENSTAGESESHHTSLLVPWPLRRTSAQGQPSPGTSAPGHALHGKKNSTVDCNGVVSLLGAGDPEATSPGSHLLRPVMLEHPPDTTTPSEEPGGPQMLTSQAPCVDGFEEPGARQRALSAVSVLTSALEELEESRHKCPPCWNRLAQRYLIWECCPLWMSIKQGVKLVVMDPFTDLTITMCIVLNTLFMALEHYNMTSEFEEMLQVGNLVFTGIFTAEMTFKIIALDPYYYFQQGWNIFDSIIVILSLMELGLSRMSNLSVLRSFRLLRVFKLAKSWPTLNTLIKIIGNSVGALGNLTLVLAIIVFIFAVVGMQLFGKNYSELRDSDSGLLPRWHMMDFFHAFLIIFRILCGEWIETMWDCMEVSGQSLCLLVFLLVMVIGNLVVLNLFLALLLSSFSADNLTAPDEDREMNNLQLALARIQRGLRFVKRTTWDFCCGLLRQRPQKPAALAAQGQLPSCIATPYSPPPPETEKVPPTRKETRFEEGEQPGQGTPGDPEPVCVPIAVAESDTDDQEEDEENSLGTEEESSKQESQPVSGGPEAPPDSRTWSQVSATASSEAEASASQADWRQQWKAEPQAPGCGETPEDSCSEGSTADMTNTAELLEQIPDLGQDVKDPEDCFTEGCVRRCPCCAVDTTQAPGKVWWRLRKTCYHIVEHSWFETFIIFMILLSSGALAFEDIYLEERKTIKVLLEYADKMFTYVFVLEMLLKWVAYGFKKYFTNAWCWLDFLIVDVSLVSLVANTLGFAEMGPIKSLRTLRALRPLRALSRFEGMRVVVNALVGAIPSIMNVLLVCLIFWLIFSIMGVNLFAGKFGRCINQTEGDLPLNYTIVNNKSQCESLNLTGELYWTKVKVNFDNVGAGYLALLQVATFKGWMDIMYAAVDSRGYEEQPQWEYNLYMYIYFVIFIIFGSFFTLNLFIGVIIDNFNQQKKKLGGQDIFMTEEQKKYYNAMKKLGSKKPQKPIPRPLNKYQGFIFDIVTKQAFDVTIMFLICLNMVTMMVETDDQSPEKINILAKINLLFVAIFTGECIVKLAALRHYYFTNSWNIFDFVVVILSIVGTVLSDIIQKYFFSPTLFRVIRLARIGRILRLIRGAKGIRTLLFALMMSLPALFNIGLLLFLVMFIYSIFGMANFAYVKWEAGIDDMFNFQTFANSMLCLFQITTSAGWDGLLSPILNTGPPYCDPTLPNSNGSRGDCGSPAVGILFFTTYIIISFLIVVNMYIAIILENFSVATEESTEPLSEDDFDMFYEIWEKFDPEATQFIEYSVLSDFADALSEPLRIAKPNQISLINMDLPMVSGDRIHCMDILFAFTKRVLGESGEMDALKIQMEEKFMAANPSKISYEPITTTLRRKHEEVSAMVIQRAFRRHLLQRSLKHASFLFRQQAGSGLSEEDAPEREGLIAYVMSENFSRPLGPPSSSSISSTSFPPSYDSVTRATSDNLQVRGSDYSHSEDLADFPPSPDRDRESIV
T1 sequence (Q9UQD0 whole entry): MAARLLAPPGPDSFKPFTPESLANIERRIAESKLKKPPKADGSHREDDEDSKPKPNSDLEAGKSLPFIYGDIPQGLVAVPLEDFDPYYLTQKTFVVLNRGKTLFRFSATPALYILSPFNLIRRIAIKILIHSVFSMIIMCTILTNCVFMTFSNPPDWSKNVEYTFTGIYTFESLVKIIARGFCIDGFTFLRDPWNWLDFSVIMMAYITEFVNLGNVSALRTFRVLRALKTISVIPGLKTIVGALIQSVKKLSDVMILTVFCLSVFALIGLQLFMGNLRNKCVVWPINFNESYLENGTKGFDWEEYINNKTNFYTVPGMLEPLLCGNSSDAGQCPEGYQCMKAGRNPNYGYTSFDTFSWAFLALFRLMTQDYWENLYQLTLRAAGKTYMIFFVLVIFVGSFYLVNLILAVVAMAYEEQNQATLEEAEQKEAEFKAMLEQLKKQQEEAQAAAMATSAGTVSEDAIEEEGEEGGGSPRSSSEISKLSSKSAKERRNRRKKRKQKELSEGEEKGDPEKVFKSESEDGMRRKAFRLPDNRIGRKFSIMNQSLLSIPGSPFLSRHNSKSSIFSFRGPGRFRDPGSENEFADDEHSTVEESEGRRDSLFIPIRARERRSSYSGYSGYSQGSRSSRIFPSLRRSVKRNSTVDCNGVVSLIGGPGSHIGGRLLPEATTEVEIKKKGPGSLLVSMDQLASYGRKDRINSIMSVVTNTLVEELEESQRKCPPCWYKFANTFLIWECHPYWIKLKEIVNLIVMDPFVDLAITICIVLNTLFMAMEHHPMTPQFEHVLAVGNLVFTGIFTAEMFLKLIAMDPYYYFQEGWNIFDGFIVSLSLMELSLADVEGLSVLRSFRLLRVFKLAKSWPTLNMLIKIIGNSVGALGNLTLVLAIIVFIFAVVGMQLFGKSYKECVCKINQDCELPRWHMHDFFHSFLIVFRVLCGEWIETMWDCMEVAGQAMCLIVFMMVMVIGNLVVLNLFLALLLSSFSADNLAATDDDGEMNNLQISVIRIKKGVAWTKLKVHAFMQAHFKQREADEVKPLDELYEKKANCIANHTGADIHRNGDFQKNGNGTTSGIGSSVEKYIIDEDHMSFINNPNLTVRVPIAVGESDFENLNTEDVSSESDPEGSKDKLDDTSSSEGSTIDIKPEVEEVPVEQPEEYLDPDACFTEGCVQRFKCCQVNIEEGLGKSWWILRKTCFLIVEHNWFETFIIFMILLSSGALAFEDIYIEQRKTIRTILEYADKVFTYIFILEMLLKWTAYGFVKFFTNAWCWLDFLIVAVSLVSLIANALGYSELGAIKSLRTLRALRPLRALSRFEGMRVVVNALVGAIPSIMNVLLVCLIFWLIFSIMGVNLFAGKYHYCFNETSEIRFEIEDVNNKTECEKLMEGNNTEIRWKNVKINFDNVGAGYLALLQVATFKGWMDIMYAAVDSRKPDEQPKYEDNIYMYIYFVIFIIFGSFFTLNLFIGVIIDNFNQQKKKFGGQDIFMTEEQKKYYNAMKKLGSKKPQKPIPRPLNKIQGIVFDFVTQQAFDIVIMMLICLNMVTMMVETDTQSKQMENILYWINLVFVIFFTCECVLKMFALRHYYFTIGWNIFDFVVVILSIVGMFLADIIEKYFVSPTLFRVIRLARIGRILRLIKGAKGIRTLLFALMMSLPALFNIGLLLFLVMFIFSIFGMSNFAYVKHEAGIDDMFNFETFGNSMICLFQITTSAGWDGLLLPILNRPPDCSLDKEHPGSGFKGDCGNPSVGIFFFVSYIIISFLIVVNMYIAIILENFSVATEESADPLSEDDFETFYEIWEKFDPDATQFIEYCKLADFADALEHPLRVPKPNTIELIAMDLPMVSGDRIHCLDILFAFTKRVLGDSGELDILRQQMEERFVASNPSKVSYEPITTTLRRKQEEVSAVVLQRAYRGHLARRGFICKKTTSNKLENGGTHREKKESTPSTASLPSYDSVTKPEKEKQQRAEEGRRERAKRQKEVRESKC

SMILES	IC50 (NaV1.6 [1])	IC50 (NaV1.1 [2])	IC50 (NaV1.5 [3])	IC50 (NaV1.6 [4])	IC50 (NaV1.5 [5])	IC50 (NaV1.1 [6])	IC50 (NaV1.5 [7])
CC1(C)CCN1Cc1c(F)cccc1CNc1cc(F)c(S(=O)(=O)Nc2cscn2)c(F)c1 [Example 198, 4-((2-((2,2-dimethylazetidin-1-yl)methyl)-3-fluorobenzyl)amino)-2,6-difluoro-N-(thiazol-4-yl)benzenesulfonamide formate]	0.391 µM	25.8 µM	30 µM				
CC[C@H](Nc1cc(F)c(S(=O)(=O)Nc2ccncn2)cc1Cl)c1ccccc1Cl [Example 277, (S)-5-chloro-4-((1-(2-chlorophenyl)propyl)amino)-2-fluoro-N-(pyrimidin-4-yl)benzenesulfonamide 2,2,2-trifluoroacetate]	0.38 µM	3.77 µM		0.043 µM	10 µM	5.59 µM	9.39 µM
C[C@H](Nc1cc(F)c(S(=O)(=O)Nc2cscn2)cc1Cl)c1cc(Cl)ccc1F [Example 5, (S)-5-chloro-4-((1-(5-chloro-2-fluorophenyl)ethyl)amino)-2-fluoro-N-(thiazol-4-yl)benzenesulfonamide]	0.785 µM	4.83 µM		0.152 µM	10 µM	10 µM	5.31 µM
C[C@H](Oc1cc(F)c(S(=O)(=O)Nc2nccs2)cc1Cl)c1ccccc1F [Example 116, (S)-5-chloro-2-fluoro-4-(1-(2-fluorophenyl)ethoxy)-N-(thiazol-2-yl)benzenesulfonamide]	0.477 µM	5.78 µM		0.037 µM	14.3 µM	9.89 µM	4.58 µM
C[C@H]1CCCN1Cc1cccc(F)c1CNc1cc(F)c(S(=O)(=O)Nc2cscn2)c(F)c1 [Example 158, (S)-2,6-difluoro-4-((2-fluoro-6-((2-methylpyrrolidin-1-yl)methyl)benzyl)amino)-N-(thiazol-4-yl)benzenesulfonamide formate]	0.126 µM	30 µM	30 µM				
O=S(=O)(Nc1nccs1)c1cc(Cl)c(NCc2cccc3ccncc23)cc1F [Example 61, 5-chloro-2-fluoro-4-((isoquinolin-8-ylmethyl)amino)-N-(thiazol-2-yl)benzenesulfonamide]	0.021 µM	1.13 µM		0.004 µM	10 µM	0.283 µM	8.91 µM
O=S(=O)(Nc1cscn1)c1c(F)cc(NCc2c(F)ccc(F)c2CN2CCC2)cc1F [Example 283, 4-((2-(azetidin-1-ylmethyl)-3,6-difluorobenzyl)amino)-2,6-difluoro-N-(thiazol-4-yl)benzenesulfonamide]	0.126 µM	14.9 µM		0.011 µM	30 µM	14.5 µM	28 µM
CN(Cc1cccc(F)c1CNc1cc(F)c(S(=O)(=O)Nc2cscn2)c(F)c1)CC1CC1 [Example 187, 4-((2-(((cyclopropylmethyl)(methyl)amino)methyl)-6-fluorobenzyl)amino)-2,6-difluoro-N-(thiazol-4-yl)benzenesulfonamide formate]	0.065 µM	12.4 µM	30 µM				
O=S(=O)(Nc1cscn1)c1c(F)cc(NCc2ccccc2CN2CCC2)cc1F [Example 272, 4-((2-(azetidin-1-ylmethyl)benzyl)amino)-2,6-difluoro-N-(thiazol-4-yl)benzenesulfonamide formate]	0.163 µM	20.7 µM		0.031 µM	30 µM	10 µM	30 µM
C[C@H](Nc1ccc(S(=O)(=O)Nc2cscn2)c(F)c1Cl)c1cc(Cl)ccc1F [Example 190, (S)-3-chloro-4-((1-(5-chloro-2-fluorophenyl)ethyl)amino)-2-fluoro-N-(thiazol-4-yl)benzenesulfonamide]	0.571 µM	13.4 µM		0.055 µM	30 µM	9.71 µM	25.8 µM
C[C@H](Nc1cc(F)c(S(=O)(=O)Nc2cscn2)cc1Cl)c1cc(CCN2CCC2)ccc1F [Example 257, (S)-4-((1-(5-(2-(azetidin-1-yl)ethyl)-2-fluorophenyl)ethyl)amino)-5-chloro-2-fluoro-N-(thiazol-4-yl)benzenesulfonamide formate]	0.49 µM	6.1 µM	8.39 µM				
